The values below come from DBAASP.

≈ marks a conversion by molar mass, not a printed value. A value given as a limit tells only on which side of the number the result lay.

What all share (assay): ≥ marks a high value that may be exact or a test limit, other limits are often not marked, values filed in µg/mL are converted to µM
The subject of experiment [1] is Candida albicans.
In experiment [2] the test system is Pseudomonas aeruginosa ATCC 27853.
For experiment [3], the system named is Staphylococcus aureus ATCC 49476.
In experiment [4] the test system is Staphylococcus aureus MR.
Experiment [5] deals with Bifidobacterium longum subsp. infantis.
The test system of experiment [6] is Escherichia coli.
For experiment [7], the system named is Staphylococcus aureus.
The test system of experiment [8] is Bacillus subtilis DELTA.
For experiment [9], the system named is Candida parapsilosis.
The subject of experiment [10] is Escherichia coli DH5alpha.
Experiment [11] concerns Pseudomonas aeruginosa PAO1.
For experiment [12], the system named is Zymomonas mobilis ATCC 10988.
In experiment [13] the test system is Bacillus subtilis ATCC 6051.
For experiment [14], the system named is Escherichia coli NEB5alpha.
For experiment [15], the system named is Aureobasidium pullulans.
The test system of experiment [16] is Bacillus megaterium.
For experiment [17], the system named is Bacillus subtilis ATCC 23857.
Experiment [18] concerns Candida albicans ATCC 10231.
Experiment [19] relates to Corynebacterium glutamicum ATCC 13032.
In experiment [20] the test system is Escherichia coli ATCC 25922.
The subject of experiment [21] is Micrococcus luteus.
Experiment [22] deals with Staphylococcus aureus ATCC 9144.
Experiment [23] relates to Acinetobacter baumannii ATCC 7978.
Experiment [24] deals with Klebsiella pneumoniae WGLW2.
For experiment [25], the system named is Staphylococcus aureus ATCC 29231.
Experiment [26] has as its system Staphylococcus aureus MW2.
Experiment [27] has as its system Cryptococcus neoformans ATCC 32264.
The test system of experiment [28] is Bacillus subtilis ATCC 6633.
In experiment [29] the test system is Candida albicans CGMCC 2.2411.
In experiment [30] the test system is Enterococcus faecalis CVCC 3936.
For experiment [31], the system named is Escherichia coli CVCC 1515.
For experiment [32], the system named is Escherichia coli CVCC 195.
The test system of experiment [33] is Listeria ivanovii ATCC 19119.
The subject of experiment [34] is Pseudomonas aeruginosa CICC 10419.
The test system of experiment [35] is Salmonella enterica subsp. enterica serovar Pullorum CVCC 1809.
Experiment [36] deals with Salmonella enterica subsp. enterica serovar Pullorum CVCC 533.
The subject of experiment [37] is Salmonella enterica subsp. enterica serovar Typhimurium ATCC 14028.
The test system of experiment [38] is Staphylococcus aureus ATCC 43300.
For experiment [39], the system named is Streptococcus suis CVCC 606.

As usually defined, the MIC is the least concentration at which growth counts as inhibited.

`CC[C@H](C)[C@H](NC(=O)[C@H](CO)NC(=O)[C@H](Cc1ccccc1)NC(=O)[C@H](CC(C)C)NC(=O)CNC(=O)CNC(=O)[C@@H](NC(=O)[C@@H](NC(=O)[C@H](Cc1cnc[nH]1)NC(=O)[C@H](Cc1cnc[nH]1)NC(=O)[C@@H](NC(=O)[C@@H](N)Cc1ccccc1)[C@@H](C)CC)[C@@H](C)CC)[C@@H](C)CC)C(=O)NCC(=O)N[C@@H](CCCCN)C(=O)N[C@H](C(=O)N[C@H](C(=O)N[C@@H](Cc1cnc[nH]1)C(=O)N[C@@H](CCCN=C(N)N)C(=O)N[C@@H](CC(C)C)C(=O)N[C@H](C(=O)N[C@@H](CCCN=C(N)N)C(=O)N[C@@H](CCCN=C(N)N)C(=O)N[C@@H](CCCN=C(N)N)C(=O)N[C@@H](CCCN=C(N)N)C(=O)N[C@@H](CCCN=C(N)N)C(=O)O)[C@@H](C)CC)[C@@H](C)CC)[C@@H](C)CC` [FIHHIIGGLFSIGKIIHRLIRRRRR]: the MIC in experiment [1] was found to be 41.8 µM (≈ 128 µg/mL); in [2], 167 µM (≈ 512 µg/mL); in [3], 5.22 µM (≈ 16 µg/mL); in [4], 20.9 µM (≈ 64 µg/mL).
`CC(C)C[C@H](NC(=O)[C@H](CC(=O)O)NC(=O)[C@H](CCCCN)NC(=O)[C@@H](N)Cc1ccccc1)C(=O)NCC(=O)N[C@@H](CCC(=O)O)C(=O)N[C@@H](CCC(=O)O)C(=O)N[C@@H](CC(N)=O)C(=O)N[C@@H](Cc1ccccc1)C(=O)N[C@@H](CCCCN)C(=O)O` [FKDLGEENFK]: the minimum inhibitory concentration (MIC) in [5] was not below 2450 µM; in experiment [6] it was 2450 µM (≈ 3000 µg/mL); in experiment [7], 2450 µM (≈ 3000 µg/mL).
With `CC[C@H](C)[C@H](NC(=O)[C@H](CCCN=C(N)N)NC(=O)[C@H](CCC(N)=O)NC(=O)[C@@H](NC(=O)[C@@H](NC(=O)[C@H](CCCN=C(N)N)NC(=O)[C@H](CCCCN)NC(=O)[C@H](Cc1ccccc1)NC(C)=O)[C@@H](C)CC)C(C)C)C(=O)N[C@@H](CCCCN)C(=O)N[C@@H](CC(=O)O)C(=O)N[C@@H](CC(C)C)C(=O)N[C@@H](CC(C)C)C(=O)N[C@@H](CCCN=C(N)N)C(N)=O` [FKRIVQRIKDLLR], the MIC was not below 119 µM in experiment [8]; not below 119 µM in [9]; not below 119 µM in experiment [10]; 23.7 µM (≈ 41 µg/mL) in experiment [11]; 23.7 µM (≈ 41 µg/mL) in experiment [12].
Consider `CC[C@H](C)[C@H](NC(=O)[C@H](C)NC(=O)CNC(=O)[C@H](CCCCN)NC(=O)[C@H](CCC(=O)O)NC(=O)[C@H](CCC(=O)O)NC(=O)[C@H](CC(=O)O)NC(=O)[C@H](CCC(=O)O)NC(=O)[C@H](CC(N)=O)NC(=O)[C@H](CCCN=C(N)N)NC(=O)CN)C(=O)N[C@H](C(=O)N[C@@H](CCCCN)C(=O)N[C@H](C(=O)N[C@@H](CCCCN)C(=O)NCC(=O)NCC(=O)N[C@@H](CC(C)C)C(=O)O)C(C)C)C(C)C` [GRNEDEEKGAIVKVKGGL], for which the MIC in experiment [13] and in [14] was not below 1000 µM in each case.
Take `C[C@H](NC(=O)[C@H](CCCN=C(N)N)NC(=O)[C@H](Cc1c[nH]c2ccccc12)NC(=O)[C@H](Cc1c[nH]c2ccccc12)NC(=O)[C@H](Cc1c[nH]c2ccccc12)NC(=O)[C@@H]1CCCN1C(=O)[C@H](CCCN=C(N)N)NC(=O)[C@H](CCCN=C(N)N)NC(=O)CN)C(=O)N[C@@H](CCCN=C(N)N)C(N)=O` [GRRPWWWRAR]: the MIC came to 21.9 µM (≈ 31.3 µg/mL) in experiment [15]; 0.701 µM (≈ 0.999 µg/mL) in [16]; 2.73 µM (≈ 3.9 µg/mL) in experiment [17]; 21.9 µM (≈ 31.3 µg/mL) in experiment [18]; 1.4 µM (≈ 2 µg/mL) in experiment [19]; 5.47 µM (≈ 7.79 µg/mL) in experiment [20]. For the same molecule, the MIC in [21] is 2.73 µM (≈ 3.9 µg/mL); in experiment [2] it was 21.9 µM (≈ 31.3 µg/mL); in experiment [22] it was 5.47 µM (≈ 7.79 µg/mL).
Turning to `CC[C@H](C)[C@H](NC(=O)[C@H](Cc1c[nH]c2ccccc12)NC(=O)[C@H](CCCCN)NC(=O)[C@@H](N)CC(C)C)C(=O)NCC(=O)N[C@@H](CCCCN)C(=O)N[C@@H](CCCCN)C(=O)N[C@H](C(=O)N[C@@H](Cc1c[nH]c2ccccc12)C(=O)N[C@@H](CCCN=C(N)N)C(=O)N[C@H](C(=O)NCC(=O)N[C@@H](Cc1c[nH]c2ccccc12)C(=O)N[C@@H](CC(N)=O)C(=O)N[C@@H](Cc1c[nH]c2ccccc12)C(=O)N[C@@H](CCCN=C(N)N)C(=O)O)C(C)C)[C@@H](C)CC` [LKWIGKKIWRVGWNWR], the MIC was 15.1 µM (≈ 32 µg/mL) in experiment [23]; 60.2 µM (≈ 128 µg/mL) in [18]; not below 60.2 µM in [24]; not below 60.2 µM in experiment [25]; 30.1 µM (≈ 64 µg/mL) in [26].
Take `NCCCC[C@H](NC(=O)[C@H](CCCCN)NC(=O)[C@H](Cc1c[nH]c2ccccc12)NC(=O)[C@H](CCCCN)NC(=O)[C@H](CCCN=C(N)N)NC(=O)[C@H](CCCN=C(N)N)NC(=O)[C@H](CCCCN)NC(=O)[C@@H](N)CCCN=C(N)N)C(N)=O` [RKRRKWKK]: the MIC in experiment [27] is not below 200 µM.
Regarding `CC(C)[C@H](NC(=O)[C@H](CCCCN)NC(=O)[C@H](Cc1c[nH]c2ccccc12)NC(=O)[C@H](CCCN=C(N)N)NC(=O)CNC(=O)[C@H](CCC(N)=O)NC(=O)[C@@H](NC(=O)[C@@H](N)CCCN=C(N)N)C(C)C)C(=O)N[C@@H](CCCN=C(N)N)C(=O)N[C@@H](C)C(=O)N[C@@H](CO)C(=O)N[C@@H](Cc1ccccc1)C(=O)N[C@@H](Cc1ccccc1)C(=O)N[C@@H](CCCCN)C(=O)O` [RVQGRWKVRASFFK], the MIC in experiment [28] was 18.1 µM (≈ 32 µg/mL); in experiment [29], not below 36.3 µM; in [30], 18.1 µM (≈ 32 µg/mL); in experiment [31], 4.53 µM (≈ 8 µg/mL); in experiment [32] it was 4.53 µM (≈ 8 µg/mL); in experiment [33], 4.53 µM (≈ 8 µg/mL). Moreover, the MIC in experiment [34] was not below 36.3 µM; in experiment [35], 9.06 µM (≈ 16 µg/mL); in experiment [36] it was 18.1 µM (≈ 32 µg/mL); in experiment [37] it was 9.06 µM (≈ 16 µg/mL); in experiment [38] it was 36.3 µM (≈ 64 µg/mL); in experiment [39], not below 36.3 µM.
